Measured values: a compilation of properties of binary mixtures (doi:10.1080/00319104.2019.1566461)

Assay: xn = mol fraction of the nth substance listed
Details: 101.3 kPa

CCOS(=O)(=O)[O-].CC[n+]1ccn(C)c1 + CC(C)C(=O)O
x2 = 0
Details	speed of sound [m/s]
293.15 K	1686.8
298.15 K	1671.4
303.15 K	1661.9
308.15 K	1649.6

CC(C)C(=O)O + CCOS(=O)(=O)[O-].CC[n+]1ccn(C)c1
speed of sound [m/s]
Details	288.15 K	293.15 K	298.15 K	303.15 K	308.15 K	313.15 K
x1 = 0.1122	1665.5	1652.8	1640	1627.4	1614.9	1602.6
x1 = 0.2295	–	–	1606.3	1593.5	1580.8	1568.2
x1 = 0.3297	1592.5	–	1566.2	1553.2	1540.2	1527.4
x1 = 0.4305	1554.5	1541.2	–	1514.4	1501.1	1488.1
x1 = 0.5464	1501.1	1487.4	–	1459.8	1446.2	1432.7
x1 = 0.6412	–	1439.4	1425.1	1411	1396.9	1383.1
x1 = 0.728	1398.5	1383.9	1369.1	1354.4	1339.9	1325.5
x1 = 0.8127	1331.5	–	–	1284.8	1269	1253.8
x1 = 0.9073	1256.7	1240	1222.8	1205.6	1188.9	1172.5
x1 = 0.9336	1233.1	1213.2	–	–	1162.5	–
x1 = 0.9576	1200.2	–	1158.9	1141	1122.2	1100.7
x1 = 1	1159	1140.3	1121.2	–	1083.6	1065.1

CCOS(=O)(=O)[O-].CC[n+]1ccn(C)c1 + CCCCC(=O)O
x2 = 0
Details	speed of sound [m/s]
288.15 K	1696.4
293.15 K	1686.8
298.15 K	1671.4
303.15 K	1661.9
308.15 K	1649.6
313.15 K	1637.5

CCCCC(=O)O + CCOS(=O)(=O)[O-].CC[n+]1ccn(C)c1
speed of sound [m/s]
Details	288.15 K	293.15 K	298.15 K	303.15 K	308.15 K	313.15 K
x1 = 0.0974	–	1655.2	1642.4	1629.8	1617.2	1604.9
x1 = 0.1949	1636.9	–	1611	1598.1	1585.4	1572.9
x1 = 0.2975	1598.8	–	1572.4	–	1546.4	–
x1 = 0.3947	–	–	1538.1	1524.8	–	1498.6
x1 = 0.495	1525	1511.5	1497.7	1484.1	1470.7	1457.3
x1 = 0.595	–	–	1455.3	1441.2	–	1413.8
x1 = 0.6941	1435.7	1421.3	1406.7	1392.3	1377.9	1363.7
x1 = 0.7905	1383	1367.9	1352.6	1337.5	1322.4	1307.5
x1 = 0.8965	1315	1298.6	1282	1265.6	1249.4	1233.2
x1 = 0.926	1295.1	1278.3	1261.3	1244.4	1227.7	1211.1
x1 = 0.9529	1277.5	–	1242.8	–	1208.3	1191.3
x1 = 1	1253.7	1235.8	–	1199.5	–	1163.9
